Publication PMC7004140, “In vitro hepatotoxicity of Petasites hybridus extract (Ze 339) depends on the concentration, the cytochrome activity of the cell system, and the species used” (Phytotherapy Research, 2019)

Experiments:
Type in all cases: in vitro ADME
Conditions in all cases: petasins 20 μM, 60 min
CYP3A1 (rat) = target: T1, CYP3A1 (rat) (Rattus norvegicus, UniProt P04800); experiment: Metabolism by isolated rat CYP3A1
T1 construct: purchased BD Gentest (Switzerland); host or cells: baculovirus expression system
T1 sequence (P04800 1-504): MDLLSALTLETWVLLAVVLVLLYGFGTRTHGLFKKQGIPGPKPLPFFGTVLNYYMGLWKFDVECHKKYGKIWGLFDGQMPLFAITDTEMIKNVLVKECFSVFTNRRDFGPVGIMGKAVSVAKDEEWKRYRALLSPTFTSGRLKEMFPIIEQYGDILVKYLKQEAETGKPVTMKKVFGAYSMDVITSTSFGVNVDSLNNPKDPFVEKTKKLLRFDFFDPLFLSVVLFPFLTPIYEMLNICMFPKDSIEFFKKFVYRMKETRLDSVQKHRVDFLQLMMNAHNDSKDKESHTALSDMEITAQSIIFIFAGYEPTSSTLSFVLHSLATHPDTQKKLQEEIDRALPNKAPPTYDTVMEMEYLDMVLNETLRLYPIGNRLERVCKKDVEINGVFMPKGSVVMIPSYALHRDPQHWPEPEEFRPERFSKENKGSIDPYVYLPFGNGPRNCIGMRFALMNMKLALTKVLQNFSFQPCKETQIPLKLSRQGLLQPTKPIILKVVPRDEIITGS
Description: (§1) The metabolism of petasin, isopetasin, and neopetasin was investigated using three different S9 fractions originating from three different species (isolated from rat, dog, and human liver homogenates containing cytochrome P450 isoforms) and isolated cytochromes of two different species (human and rat; rat analogues of the respective human cytochromes were used). For the expression of the different cytochromes, a baculovirus expression system was used according to supplier's manual. The S9 fractions or respectively single P450 cytochromes were used to mimic the liver metabolism by in vitro incubation.
(§2) The assay was carried out in triplicate in 1.5 ml glass vials with a final concentration of 20 μM of petasin, isopetasin, and neopetasin. The incubation was performed in a 37°C warm water bath. S9 fractions were thawed slowly on ice. […]
(§3) A mixture of NADPH regeneration systems A (20‐fold) and B (100‐fold), phosphate buffer, and H2O was added, preincubated at 37°C, and shaken gently for 5 min. […] The supernatant was transferred to high‐performance liquid chromatography vials and analyzed by ultra‐performance liquid chromatography mass spectrometry (UPLC/MS). […]

CYP1A2 (rat) = target: T2, CYP1A2 (rat) (Rattus norvegicus, UniProt P04799); experiment: Metabolism by isolated rat CYP1A2
T2 construct: purchased BD Gentest (Switzerland); host or cells: baculovirus expression system
T2 sequence (P04799 1-513): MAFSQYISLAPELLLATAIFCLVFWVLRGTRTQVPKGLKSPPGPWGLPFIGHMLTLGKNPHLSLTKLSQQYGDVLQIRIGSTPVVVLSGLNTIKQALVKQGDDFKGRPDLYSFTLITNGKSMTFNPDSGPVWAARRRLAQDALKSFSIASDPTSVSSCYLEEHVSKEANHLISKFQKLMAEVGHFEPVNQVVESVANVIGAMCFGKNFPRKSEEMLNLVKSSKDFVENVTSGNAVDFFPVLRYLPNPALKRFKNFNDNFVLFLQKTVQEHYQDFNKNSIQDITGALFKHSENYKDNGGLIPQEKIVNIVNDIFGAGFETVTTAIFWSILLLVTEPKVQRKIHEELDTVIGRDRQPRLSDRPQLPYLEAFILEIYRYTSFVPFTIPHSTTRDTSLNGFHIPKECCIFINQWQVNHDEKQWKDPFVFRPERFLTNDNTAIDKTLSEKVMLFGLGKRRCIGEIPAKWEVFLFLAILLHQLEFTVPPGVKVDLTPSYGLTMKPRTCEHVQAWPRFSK
Description: as §1, §2, §3

CYP2C9 (human) = target: T3, CYP2C9 (human) (Homo sapiens, UniProt P11712); experiment: Metabolism by isolated human CYP2C9
T3 construct: purchased BD Gentest (Switzerland); host or cells: baculovirus expression system
Description: as §1, §2, §3

CYP2D6 (human) = target: T4, CYP2D6 (human) (Homo sapiens, UniProt P10635); experiment: Metabolism by isolated human CYP2D6
T4 construct: purchased BD Gentest (Switzerland); host or cells: baculovirus expression system
Description: as §1, §2, §3

T4 sequence (P10635 whole entry): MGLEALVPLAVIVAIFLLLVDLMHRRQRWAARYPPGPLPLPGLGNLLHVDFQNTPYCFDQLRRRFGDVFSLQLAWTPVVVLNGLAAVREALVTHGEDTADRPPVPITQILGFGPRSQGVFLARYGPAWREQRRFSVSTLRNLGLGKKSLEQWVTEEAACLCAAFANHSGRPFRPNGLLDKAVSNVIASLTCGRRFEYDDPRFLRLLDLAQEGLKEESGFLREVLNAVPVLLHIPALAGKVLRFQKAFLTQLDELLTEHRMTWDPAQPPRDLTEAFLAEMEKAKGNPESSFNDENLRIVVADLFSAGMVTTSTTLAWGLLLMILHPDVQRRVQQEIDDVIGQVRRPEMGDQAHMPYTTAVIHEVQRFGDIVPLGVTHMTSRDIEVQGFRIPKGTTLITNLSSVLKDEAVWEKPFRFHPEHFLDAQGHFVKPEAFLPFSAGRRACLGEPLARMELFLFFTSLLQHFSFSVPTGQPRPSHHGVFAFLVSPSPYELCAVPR
T3 sequence (P11712 whole entry): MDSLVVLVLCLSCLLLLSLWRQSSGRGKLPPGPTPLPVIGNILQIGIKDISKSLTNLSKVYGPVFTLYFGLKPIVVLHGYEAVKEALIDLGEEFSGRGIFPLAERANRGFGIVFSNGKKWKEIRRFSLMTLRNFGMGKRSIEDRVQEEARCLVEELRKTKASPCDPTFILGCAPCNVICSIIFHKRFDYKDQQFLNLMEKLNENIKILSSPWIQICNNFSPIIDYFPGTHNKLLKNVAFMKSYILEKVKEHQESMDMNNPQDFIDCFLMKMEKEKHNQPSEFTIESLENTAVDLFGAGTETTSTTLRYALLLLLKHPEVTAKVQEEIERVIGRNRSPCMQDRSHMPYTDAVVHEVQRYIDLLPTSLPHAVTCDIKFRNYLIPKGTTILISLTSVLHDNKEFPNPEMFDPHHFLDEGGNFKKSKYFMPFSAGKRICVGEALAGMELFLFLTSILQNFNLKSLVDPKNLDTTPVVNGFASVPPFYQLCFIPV

SMILES	extent of metabolism by CYP3A1 (rat) (CYP3A1 (rat)) [%]	extent of metabolism by CYP1A2 (rat) (CYP1A2 (rat)) [%]	extent of metabolism by CYP2C9 (human) (CYP2C9 (human)) [%]	extent of metabolism by CYP2D6 (human) (CYP2D6 (human)) [%]
C=C(C)[C@H]1C[C@@]2(C)C(=CC1=O)CC[C@@H](OC(=O)/C(C)=C\C)[C@@H]2C [neopetasin]	78			
C/C=C(/C)C(=O)O[C@@H]1CCC2=CC(=O)C(=C(C)C)C[C@]2(C)[C@H]1C [isopetasin]		< 1		
C=C(C)[C@@H]1C[C@@]2(C)C(=CC1=O)CC[C@@H](OC(=O)/C(C)=C\C)[C@@H]2C [petasin]	37	43	51	80.2
